Test results: US20100130450A1, “Methods of Treating Fungal Infections” (NORTHEASTERN UNIVERSITY, priority 2007, published 2010)
“Also recorded” adds a separate entry of the source.

Assays:
[1] = system: Biofilms of C. albicans 3153A cells; experiment: C. albicans biofilm killing by antifungals, CFU determination; type: cell-based, Candida albicans; settings: for shape of biofilm killing curve: dose-dependent
Protocol: Biofilms of C. albicans 3153A cells were cultured in wells of microtiter plates in RPMI medium for 48 hrs (Ramage et al., Antimicrob. Agents Chemother. 45:2475-2479 (2001)), washed twice in PBS pH 7.4 to remove nonadherent cells, and resuspended in 100 μl RPMI growth medium containing antifungals. After 24 hrs of antifungal challenge, the biofilms and cultures were washed twice, resuspended in 100 μl PBS, scraped, transferred into eppendorf tubes, vortexed and plated for colony forming unit (CFU) determination on YPD medium. […] In parallel, exponentially growing and stationary planktonic cultures were grown for 48 hrs in RPMI medium, and then antifungals were added for 24 hrs. The experiment was performed in triplicate and error bars indicate standard deviation (see FIG. 1).
Biofilms were grown in microtiter plates and were treated with amphotericin B or chlorhexidine (100 μg/ml) for 24 hrs, after which they were washed and vortexed, as discussed above. The cells were then reinoculated into microtiter plates to form new biofilms. The new biofilms, derived from persisters that survived drug treatment, were again treated with the antifungal agents (as discussed above), and the procedure was repeated a total of 3 times. Biofilms were sampled for CFU determination before and after antifungal treatment. The experiment was performed in triplicate.
Tests were also performed to determine if yeast persisters were multidrug tolerant. Mature, 48 hr biofilms of C. albicans were challenged for 24 hrs with 100 μg/ml amphotericin B, 100 μg/ml chlorhexidine, or a combination of these two antifungal agents, using the same procedures discussed above. Biofilms were washed and sampled for CFU determination before and after antifungal treatment, as discussed above.

[2] = system: biofilm-deficient strains of C. albicans; experiment: Persister formation by biofilm-deficient strains (survival to high levels of amphotericin B); type: cell-based, Candida albicans
Protocol: (§1) Biofilms of C. albicans 3153A cells were cultured in wells of microtiter plates in RPMI medium for 48 hrs (Ramage et al., Antimicrob. Agents Chemother. 45:2475-2479 (2001)), washed twice in PBS pH 7.4 to remove nonadherent cells, and resuspended in 100 μl RPMI growth medium containing antifungals. After 24 hrs of antifungal challenge, the biofilms and cultures were washed twice, resuspended in 100 μl PBS, scraped, transferred into eppendorf tubes, vortexed and plated for colony forming unit (CFU) determination on YPD medium. […] This could lead to an underestimation of surviving cells by a factor of ≦10. In parallel, exponentially growing and stationary planktonic cultures were grown for 48 hrs in RPMI medium, and then antifungals were added for 24 hrs. The experiment was performed in triplicate and error bars indicate standard deviation (see FIG. 1).
[…] A large panel of biofilm-defective mutants was therefore tested for their ability to produce persisters by measuring survival to high levels of amphotericin B. These mutants were able to adhere to the surface of a microtiter plate, making it possible to assay in the biofilm survival protocol described above. Unexpectedly, all strains appeared to produce essentially normal levels of persisters (Table 1).

[3] = system: C. albicans 3153A planktonic cultures; experiment: Killing of exponentially growing and stationary planktonic cultures, CFU; type: cell-based, Candida albicans; settings: antifungal added for 24 hrs
Protocol: as §1

[4] = mouse; cited from earlier work
[5] = system: C. albicans; experiment: MIC; type: cell-based, Candida albicans
[6] = system: Candida albicans strain CAF4-2 biofilms; type: cell-based; settings: for inhibition of metabolic activity by the compound alone (XTT): any concentration tested
Protocol: Specifically, a screen was developed using C. albicans cells treated with miconazole at subinhibitory concentrations, to which candidate potentiator compounds were added. […] In order to make the screen compatible with high-throughput approaches, biofilms were grown in microtiter plates and the reduction of a vital dye XTT, commonly used to monitor yeast viability, was used as the quantitative readout.
Microtiter plate wells were seeded with wild type Candida albicans strain CAF4-2. Biofilms were grown for 48 hrs at 37° C., washed with PBS pH 7.4, and resuspended in a final volume of 100 μl RPMI containing 10 μg/ml miconazole. Individual compounds from ChemBridge DiverSet E (ChemBridge Corp., San Diego, Calif.) were then added at 10 μg/ml to the wells. Plates were incubated for 24 hrs and XTT (Sigma-X4751) was added at 1 mg/ml to each well. After 4 hrs of incubation at 37° C., reduction of XTT was monitored by recording the optical density at 690 nm (subtracted from OD450) with a microtiter plate reader. Hits were identified when XTT reduction was inhibited by more than 30% of the control values.
A checkerboard assay was then performed to examine possible synergy between miconazole and the hits. 100 μg/ml miconazole (2× dilution in each subsequent well, y-axis) and 100 μg/ml compound AC9 (2× dilution, x-axis) were added to mature 48 hr wild type C. albicans biofilms and incubated for an additional 24 hrs in the presence of the drugs. XTT was added to each well at 1 mg/ml and biofilms were incubated at 37° C. for an additional 4 hrs.
As described in Example 2, initially 5,000 compounds of the 16,000 from the ChemBridge library were screened for potentiators of miconazole action against C. albicans biofilms. A larger screen is conducted on the remaining 11,000 compounds from the ChemBridge library. Screening is performed as described in Example 2 using 96-well plates. Candida biofilms are formed by growing cells for 48 hrs at 37° C. in a shaking incubator in 96-well microtiter plates according to standard protocol (Ramage et al., Antimicrob. Agents Chemother. 45:2475-2479 (2001)). […] 10 μg/ml miconazole is added to each well and 10 μg/ml of unique compounds is added to rows 2-11 and the plates are incubated for 24 hrs at 37° C. XTT is then added to each well at 1 mg/ml and the plates are incubated for an additional 4 hrs at 37° C. The amount of XTT converted to dye is quantified with a plate reader by subtracting the optical density at 690 nm from the optical density at 450 nm. […] Positive hits are scored when the optical density of the experimental well is <0.7.

[7] = system: Mature biofilms of wild type C. albicans; experiment: Potentiation of biofilm killing by miconazole, CFU analysis; type: cell-based, Candida albicans; settings: for biofilm killing by the compound alone (CFU): alone: 100 μg/ml miconazole or 200 μg/ml hit compound
Protocol: Next, the same checkerboard assay was repeated to test the ability of the hit compounds to potentiate biofilm killing by miconazole. Mature biofilms of wild type C. albicans were challenged with 100 μg/ml miconazole, 200 μg/ml of the hit compound, or a combination of the two for 24 hrs. Biofilms were then washed, scraped, resuspended in PBS, vortexed for 30 seconds and plated for CFU analysis.

Question: Which killing of biofilms ([1]; 48 hr biofilm, 24 hrs antifungal challenge, CFU) does the source give for `CC[C@H](C)C[C@H](C)CCCCCCCCC(=O)N[C@H]1C[C@@H](O)[C@@H](NCCN)NC(=O)[C@@H]2[C@@H](O)CCN2C(=O)[C@H]([C@H](O)CCN)NC(=O)[C@H]([C@H](O)[C@@H](O)c2ccc(O)cc2)NC(=O)[C@@H]2C[C@@H](O)CN2C(=O)[C@H]([C@@H](C)O)NC1=O` [Caspofungin, caspofungin] here?
Answer: Its killing of biofilms is at most 10 fold.

Question: With `C[C@@H]1[C@H](O)[C@@H](C)/C=C/C=C/C=C/C=C/C=C/C=C/C=C/[C@H](O[C@@H]2O[C@H](C)[C@@H](O)[C@H](N)[C@@H]2O)C[C@@H]2O[C@](O)(C[C@@H](O)C[C@@H](O)[C@H](O)CC[C@@H](O)C[C@@H](O)CC(=O)O[C@H]1C)C[C@H](O)[C@H]2C(=O)O` [amphotericin B] as the molecule, how does the Persisters ([2]; strain 3153A) read?
Answer: Its Persisters is “+++^1 (1-2% survival)”.

Question: And the Persisters ([2]; strain CAI4)?
Answer: The Persisters was “+^3 (0.05-0.1% survival)”.

Question: What about the Persisters ([2]; strain CJN698) of the same molecule?
Answer: The Persisters was “++ (0.1-1% survival)”.

Question: And the Persisters ([2]; strain CJN702)?
Answer: Its Persisters is “++ (0.1-1% survival)”.

Question: And the Persisters ([2]; strain CKY136)?
Answer: Its Persisters is “+++ (1-2% survival)”.

Question: What about the Persisters ([2]; strain CKY138) of the same molecule?
Answer: The Persisters was “++ (0.1-1% survival)”.

Question: And the Persisters ([2]; strain CKY357)?
Answer: The Persisters was “++^2 (0.1-1% survival)”.

Question: And the Persisters ([2]; strain DAY185)?
Answer: The Persisters was “++ (0.1-1% survival)”.

Question: And the Persisters ([2]; strain DAY286)?
Answer: Its Persisters is “++ (0.1-1% survival)”.

Question: And the Persisters ([2]; strain GKO9)?
Answer: Its Persisters is “++ (0.1-1% survival)”.

Question: What about the Persisters ([2]; strain GKO443) of the same molecule?
Answer: Its Persisters is “++ (0.1-1% survival)”.

Question: What about the Persisters ([2]; strain GKO798) of the same molecule?
Answer: Its Persisters is “++ (0.1-1% survival)”.

Question: And the Persisters ([2]; strain GKO814)?
Answer: Its Persisters is “++ (0.1-1% survival)”.

Question: What about the Persisters ([2]; strain MC191) of the same molecule?
Answer: Its Persisters is “+++ (1-2% survival)”.

Question: And the Persisters ([2]; strain MC195)?
Answer: Its Persisters is “+ (0.05-0.1% survival)”.

Question: And the Persisters ([2]; strain MC245)?
Answer: Its Persisters is “++ (0.1-1% survival)”.

Question: What about the “shape of biofilm killing curve” value ([1]; 24 hrs challenge, CFU) of the same molecule?
Answer: Its value is “biphasic killing”.

Question: What about the “biofilm cells invulnerable to the drug (persisters)” value ([1]; higher concentrations, 24 hrs challenge) of the same molecule?
Answer: Its value is “More than 1%”.

Question: And the “killing of exponentially growing and stationary planktonic cells” value [3]?
Answer: Its value is “effectively killed exponentially growing and stationary cells”.

Question: With `[H]/N=C(\N/C(=N/[H])NCCCCCCNC(=N)NC(=N)Nc1ccc(Cl)cc1)Nc1ccc(Cl)cc1` [chlorhexidine] as the molecule, how does the “concentration at which killing of persisters was observed” value ([1]; 24 hrs challenge) read?
Answer: The value was “above 100 μg/ml”.

Question: And the “concentration at which the biofilm was completely sterilized” value ([1]; 24 hrs challenge)?
Answer: Its value is 1000 µg/mL.

Question: And the “shape of biofilm killing curve” value ([1]; 24 hrs challenge, CFU)?
Answer: Its value is “biphasic killing”.

Question: And the “killing of exponentially growing and stationary planktonic cells” value [3]?
Answer: Its value is “eliminated”.

Question: Which results are given for `Clc1ccc(COC(Cn2ccnc2)c2ccc(Cl)cc2Cl)c(Cl)c1` (stereo not shown) [miconazole]?
Answer: LD50 [4]: 519 mg/kg; MIC of logarithmically growing cells [5]: 0.03 μg/ml; inhibition of metabolic activity by the compound alone (XTT) [6]: Neither miconazole nor AC9 alone inhibited metabolic activity; XTT reduction by biofilm ([6]; miconazole alone at 10 μg/ml, 24 hrs): indistinguishable from biofilms with no miconazole; biofilm killing by the compound alone (CFU) ([7]; 24 hrs): Neither miconazole nor AC9 alone had any killing activity

Question: Which results are given for `Oc1c(/N=N/c2ccccn2)ccc2ccccc12` [AC9]?
Answer: calculated OD value (OD450 minus OD690) of the positive control ([6]; AC9 at 10 μg/ml plus 10 μg/ml miconazole, negative control >1): 0.4; inhibition of metabolic activity by the compound alone (XTT) [6]: Neither miconazole nor AC9 alone inhibited metabolic activity; lowest concentration with inhibition of metabolic activity (XTT checkerboard) ([6]; in the presence of 12.5 μg/ml miconazole, 48 hr biofilm, 24 hrs): 3.1 µg/mL; synergy with miconazole (XTT checkerboard) ([6]; up to 100 μg/ml each, 2x dilutions): clear synergy; rank among the hits in the XTT reduction inhibition checkerboard assay ([6]; with miconazole): most active compound among the hits; biofilm killing in the presence of miconazole (CFU) ([7]; 100 μg/ml miconazole + 200 μg/ml compound, 24 hrs): Complete eradication; also recorded: completely eradicated; biofilm killing by the compound alone (CFU) ([7]; 24 hrs): Neither miconazole nor AC9 alone had any killing activity; minimal concentration at which the compound potentiates complete killing of C. albicans by miconazole ([7]; with miconazole): 100 µg/mL
